# Patent publication US6407288B1, “Naphthylsalicylanilides as antimicrobial and antiinflammatory agents” (The Research Foundation of State University of New York, priority 2000, dated 2002)
# System: P. acnes 11828
# Test: MIC microdilution, gram positive
# Assay type: cell-based, Propionibacterium acnes
# Details: Cutibacterium acnes, 11828; Table 1, Gram Positive
# In short: (§1)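 Modified NCCLS broth microdilution: aerobes in full-strength BHI, anaerobes in half-strength BHI with yeast extract, hemin and menadione, each well given 10 µL of a ~1×10^8 CFU/mL inoculum. Drugs ranged 50–0.05 µg/assay, run in duplicate, incubated 24–48 h, anaerobically under 5% CO2/10% H2/N2 where needed. MIC was the lowest concentration with no visible growth.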
row,SMILES,MIC
1,"CCCCc1ccc(C(=O)c2ccc(O)c(C(=O)Nc3cccc(C(F)(F)F)c3)c2)cc1 [BBAmF, reference compound]",0.8 µg/mL
2,"N#Cc1cccc(NC(=O)c2cc(C(=O)c3ccc(-c4ccccc4)cc3)ccc2O)c1 [BPAmC, reference compound]",12.5 µg/mL

# System: P. acnes 6922
# Test: MIC microdilution, gram positive
# Assay type: cell-based, Propionibacterium acnes
# Details: Cutibacterium acnes, 6922; Table 1, Gram Positive
# In short: as §1
row,SMILES,MIC
1,"CCCCc1ccc(C(=O)c2ccc(O)c(C(=O)Nc3cccc(C(F)(F)F)c3)c2)cc1 [BBAmF, reference compound]",0.2 µg/mL
2,"N#Cc1cccc(NC(=O)c2cc(C(=O)c3ccc(-c4ccccc4)cc3)ccc2O)c1 [BPAmC, reference compound]",0.2 µg/mL

# System: S. aureus
# Test: MIC microdilution, gram positive
# Assay type: cell-based, Staphlococcus aureus
# Details: Staphylococcus aureus; Table 2, Gram Positive
# In short: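 Broth microdilution (modified NCCLS M7-A4): BHI for aerobes, supplemented half-strength BHI under 5% CO2/10% H2/N2 for anaerobes; 10 μL of ~1×10^8 CFU/mL inoculum; drugs 50 to 0.05 μg/assay from DMSO stock. Duplicates incubated 24–48 h; MIC = lowest concentration without visible growth. Staphylococcus R: coagulase-negative clinical isolate 00-045-1209.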
row,SMILES,MIC
1,"CCCCc1ccc(C(=O)c2ccc(O)c(C(=O)Nc3cccc(C(F)(F)F)c3)c2)cc1 [BBAmF, reference compound]",> 50 µg/mL
2,"N#Cc1cccc(NC(=O)c2cc(C(=O)c3ccc(-c4ccccc4)cc3)ccc2O)c1 [BPAmC, reference compound]",> 50 µg/mL

# Same assay, conditions: second Table 5 (Example 5)
row,SMILES,MIC S. aureus
1,"CCCCc1ccc(C(=O)c2ccc(O)c(C(=O)Nc3cccc(C(F)(F)F)c3)c2)cc1 [BBAmF, reference compound]",NE (NE indicates that the drug was not effective at a concentration >50 micrograms/ml)
2,"N#Cc1cccc(NC(=O)c2cc(C(=O)c3ccc(-c4ccccc4)cc3)ccc2O)c1 [BPAmC, reference compound]",NE (NE indicates that the drug was not effective at a concentration >50 micrograms/ml)

# System: S. sanguis
# Test: MIC microdilution, gram positive
# Assay type: cell-based, Streptococcus sanguis
# Details: Streptococcus; Table 1, Gram Positive
# In short: as §1
row,SMILES,MIC
1,"CCCCc1ccc(C(=O)c2ccc(O)c(C(=O)Nc3cccc(C(F)(F)F)c3)c2)cc1 [BBAmF, reference compound]",> 50 µg/mL
2,"N#Cc1cccc(NC(=O)c2cc(C(=O)c3ccc(-c4ccccc4)cc3)ccc2O)c1 [BPAmC, reference compound]",> 50 µg/mL

# System: S. aureus R2
# Test: Staphylococcus MIC
# Assay type: cell-based
# Details: second Table 5 (Example 5), strain 00-42-1066
# Description: The MIC's for the compounds were determined by a modified microdilution tube dilution method described in “Methods for Dilution Antimicrobial Susceptibility Tests for Bacteria that Grow Aerobically” (National Committee for Clinical Laboratory Standards Approved Standards, 1997, NCCLS document M7-A4). In general the modifications were made because of the unique growth requirements for the fastidious oral organisms and for those bacteria that require anaerobic conditions. Reference is also made to “Methods for Antimicrobial Susceptibility of Anaerobic Bacteria” (National Committee for Clinical Laboratory Standards Approved Standards, 1997, NCCLS document M11-A4).
# Briefly, the methods were as follows. Cultures were grown for 18-24hrs (aerobic bacteria) or 48-72 hrs (anaerobic bacteria) in the appropriate medium. For aerobic bacteria full strength brain heart infusion medium (BHI, Difco) was used. For anaerobic bacteria, half strength BHI (18.5 g/L) was supplemented by adding yeast extract (10 g/L), hemin (0.29 mL of a stock solution containing 0.1 g/200 mL dH2O) and menadione (15 mL of a stock solution containing 0.15 mL in 30 mL 95% EtOH) was used. Initial cultures were diluted to approximately 1×10^8 CFU/mL for use as an inoculum. Each assay received 10 μL of the inoculum. The drugs were prepared from a stock solution contained in dimethyl sulfoxide (DMSO) and diluted into the culture medium. Final concentrations of the drugs ranged from 50 to 0.05 μg/assay. The tests were run in duplicate and were incubated appropriately with regard to oxygen requirements for 24 to 48 hrs as required. Anaerobic incubation was an atmosphere of 5% CO2, 10% H2, with the balance N2. The lowest concentration of an antimicrobial agent at which no visible growth is noted was referred to as the MIC.
# The S.aureus R2 species is a strain 00-42-1066 from the Children's Hospital in Buffalo. It was isolated from a wound in an individual. It was […]. The sensitivity of this strain was tested agaisnt several known antibiotics.
row,SMILES,MIC
1,"CCCCc1ccc(C(=O)c2ccc(O)c(C(=O)Nc3cccc(C(F)(F)F)c3)c2)cc1 [BBAmF, reference compound]",> 50 µg/mL
2,"N#Cc1cccc(NC(=O)c2cc(C(=O)c3ccc(-c4ccccc4)cc3)ccc2O)c1 [BPAmC, reference compound]",> 50 µg/mL

# System: Lact 7496
# Test: MIC microdilution, gram positive
# Assay type: cell-based, Lactobacillus rhamnosus (casei)
# Details: Lacticaseibacillus rhamnosus, 7496; Table 2, Gram Positive
# Description: The MIC's for the compounds were determined by a modified microdilution tube dilution method described in “Methods for Dilution Antimicrobial Susceptibility Tests for Bacteria that Grow Aerobically” (National Committee for Clinical Laboratory Standards Approved Standards, 1997, NCCLS document M7-A4). In general the modifications were made because of the unique growth requirements for the fastidious oral organisms and for those bacteria that require anaerobic conditions. Reference is also made to “Methods for Antimicrobial Susceptibility of Anaerobic Bacteria” (National Committee for Clinical Laboratory Standards Approved Standards, 1997, NCCLS document M11-A4). Briefly, the methods were as follows. Cultures were grown for 18-24hrs (aerobic bacteria) or 48-72 hrs (anaerobic bacteria) in the appropriate medium. For aerobic bacteria full strength brain heart infusion medium (BHI, Difco) was used. For anaerobic bacteria, half strength BHI (18.5 g/L) was supplemented by adding yeast extract (10 g/L), hemin (0.29 mL of a stock solution containing 0.1 g/200 mL dH2O) and menadione (15 mL of a stock solution containing 0.15 mL in 30 mL 95% EtOH) was used. Initial cultures were diluted to approximately 1×10^8 CFU/mL for use as an inoculum. Each assay received 10 μL of the inoculum. The drugs were prepared from a stock solution contained in dimethyl sulfoxide (DMSO) and diluted into the culture medium. Final concentrations of the drugs ranged from 50 to 0.05 μg/assay. The tests were run in duplicate and were incubated appropriately with regard to oxygen requirements for 24 to 48 hrs as required. Anaerobic incubation was an atmosphere of 5% CO2, 10% H2, with the balance N2. The lowest concentration of an antimicrobial agent at which no visible growth is noted was referred to as the MIC.
row,SMILES,MIC
1,"CCCCc1ccc(C(=O)c2ccc(O)c(C(=O)Nc3cccc(C(F)(F)F)c3)c2)cc1 [BBAmF, reference compound]",6.3 µg/mL
2,"N#Cc1cccc(NC(=O)c2cc(C(=O)c3ccc(-c4ccccc4)cc3)ccc2O)c1 [BPAmC, reference compound]",12.5 µg/mL

# System: Aa Y4
# Test: MIC microdilution, gram negative
# Assay type: cell-based, Actinobacillus actinomycetemcomitans
# Details: Aggregatibacter actinomycetemcomitans, Y4; Table 3, Gram Negative
# Description: The MIC's for the compounds were determined by a modified microdilution tube dilution method described in “Methods for Dilution Antimicrobial Susceptibility Tests for Bacteria that Grow Aerobically” (National Committee for Clinical Laboratory Standards Approved Standards, 1997, NCCLS document M7-A4). In general the modifications were made because of the unique growth requirements for the fastidious oral organisms and for those bacteria that require anaerobic conditions. Reference is also made to “Methods for Antimicrobial Susceptibility of Anaerobic Bacteria” (National Committee for Clinical Laboratory Standards Approved Standards, 1997, NCCLS document M11-A4). Briefly, the methods were as follows. Cultures were grown for 18-24hrs (aerobic bacteria) or 48-72 hrs (anaerobic bacteria) in the appropriate medium. For aerobic bacteria full strength brain heart infusion medium (BHI, Difco) was used. For anaerobic bacteria, half strength BHI (18.5 g/L) was supplemented by adding yeast extract (10 g/L), hemin (0.29 mL of a stock solution containing 0.1 g/200 mL dH2O) and menadione (15 mL of a stock solution containing 0.15 mL in 30 mL 95% EtOH) was used. Initial cultures were diluted to approximately 1×10^8 CFU/mL for use as an inoculum. Each assay received 10 μL of the inoculum. The drugs were prepared from a stock solution contained in dimethyl sulfoxide (DMSO) and diluted into the culture medium. Final concentrations of the drugs ranged from 50 to 0.05 μg/assay. The tests were run in duplicate and were incubated appropriately with regard to oxygen requirements for 24 to 48 hrs as required. Anaerobic incubation was an atmosphere of 5% CO2, 10% H2, with the balance N2. The lowest concentration of an antimicrobial agent at which no visible growth is noted was referred to as the MIC. […] The method used was the same as described in Example 1.
row,SMILES,MIC
1,"CCCCc1ccc(C(=O)c2ccc(O)c(C(=O)Nc3cccc(C(F)(F)F)c3)c2)cc1 [BBAmF, reference compound]",> 50 µg/mL
2,"N#Cc1cccc(NC(=O)c2cc(C(=O)c3ccc(-c4ccccc4)cc3)ccc2O)c1 [BPAmC, reference compound]",> 50 µg/mL

# Same assay, conditions: Table 3 printed a second time, Gram Negative
row,SMILES,MIC Aa Y4
1,"CCCCc1ccc(C(=O)c2ccc(O)c(C(=O)Nc3cccc(C(F)(F)F)c3)c2)cc1 [BBAmF, reference compound]",NE (NE indicates that the drug was not effective at a concentration >50 micrograms/ml)
2,"N#Cc1cccc(NC(=O)c2cc(C(=O)c3ccc(-c4ccccc4)cc3)ccc2O)c1 [BPAmC, reference compound]",NE (NE indicates that the drug was not effective at a concentration >50 micrograms/ml)
